What all share (type): biochemical, influenza A(H7N2) virus
Assay [1] relates to NA enzymatic activity of A/feline/NY/16.
Assay [2] deals with NA enzymatic activity of A/chicken/NY/99.
For another assay, the system named is NA of the H7N2 viruses.

Take `CC(=O)N[C@H]1[C@H]([C@H](O)[C@H](O)CO)OC(C(=O)O)=C[C@@H]1N=C(N)N` [zanamivir]: the “Sensitivity to NA inhibitors (50% inhibitory concentration (IC50) of the NA enzymatic activity)” value in assay [1] and in assay [2] was “sensitive” each time. In addition, the “Susceptibility of the H7N2 viruses to NA inhibitors” value (“Susceptibility … to NA inhibitors” for short) in the assay with NA of the H7N2 viruses was “susceptible”.
With `CCOC(=O)C1=C[C@@H](OC(CC)CC)[C@H](NC(C)=O)[C@@H](N)C1` [oseltamivir], the “Sensitivity to NA inhibitors (50% inhibitory concentration (IC50) of the NA enzymatic activity)” value in assay [1] and in assay [2] was “sensitive” each time. Moreover, in the assay with NA of the H7N2 viruses, the “Susceptibility … to NA inhibitors” value is recorded as “susceptible”.
As to `CCC(CC)[C@H](NC(C)=O)[C@@H]1[C@H](O)[C@@H](C(=O)O)C[C@H]1N=C(N)N` [peramivir], the “Susceptibility … to NA inhibitors” value in the assay on NA of the H7N2 viruses is given as “susceptible”.
As for `[H]/N=C(\N)N[C@H]1C=C(C(=O)O)O[C@@H]([C@H](OC)[C@H](O)CO)[C@@H]1NC(C)=O` [laninamivir], the “Sensitivity to NA inhibitors (50% inhibitory concentration (IC50) of the NA enzymatic activity)” value in assay [1] and in assay [2] was “sensitive” throughout. The “Susceptibility … to NA inhibitors” value in the assay on NA of the H7N2 viruses is given as “susceptible”.

Values taken from patent US20180303928A1 (priority 2017, published 2018).
